The text below walks through data of patent US7282515B2, “Derivatives of azaspiro compounds for the treatment of pain” (Schwarz Pharma AG, priority 2002, dated 2007).

A short description of data set [1]: IRWIN test (toxic dose / maximally tolerable dosage). Type of data set: in vivo. The method, then: FIG. 1 and Table 1 show the reaction of test animals 20-45 minutes after the intraperitoneal administration of selected compounds. In each case, the maximum dosage selected for the concentration of azaspiro compounds was held, by a factor of about 2, below the toxic dose previously determined in the IRWIN test (Irwin, Psychopharmacologia 13 (1968) 222).
First, the highest possible non-toxic concentration of the respective test substances that could be used was determined by an IRWIN test (Irwin, Psychopharmacologia 13, 1968, 222).

The test system of data set [2] is NMRI mice. In words: formalin test (in-vivo test for analgesic effectiveness). Also noted: key to Mean deviation of the pain reaction compared to control (%) 30–35′ after administration of formalin / Mean deviation of the pain reaction compared to control (%) 20–25′ after administration of formalin: (+): Intensified pain reaction. The procedure: In each case, the maximum dosage selected for the concentration of azaspiro compounds was held, by a factor of about 2, below the toxic dose previously determined in the IRWIN test (Irwin, Psychopharmacologia 13 (1968) 222).
A reduction in the pain reaction is expressed in negative percentage figures.
1. In-vivo Test for Determining the Analgesic Effectiveness of the Azaspiro Compounds
The test was conducted as described by Wheeler-Aceto (Psychopharmacology 104, 1991, 35).
NMRI mice having a weight of 20-25 g were kept under controlled conditions (22±2° C., 40-70% relative humidity). 25 μl of a 5% formocarbonyl solution was injected in the hind leg and the leg-licking frequency was then clocked for 5 minutes each at defined intervals (20, 30, 40 minutes).
Next, for the formalin test, the test substances were dissolved in a physiological salt solution with 0.5% sodium carboxymethyl cellulose and were each measured in 1-3 dosages that had been applied intraperitoneally 10 minutes before administration of formalin. The comparative reference value was provided by a control excipient (10 ml/kg).
The test was performed in blind fashion on 10 mice per test series. The evaluation was based on a comparison of the treated animals with control excipients at three different times. […] Accordingly, an average 50% reduction of the pain reaction for the treated animals is obtained when in a defined period (e.g. 30-35′ after the formalin injection) the leg-licking duration (averaged over the 10 test animals) is reduced by 50% compared to the untreated animals. The statistical significance was determined using the Mann-Whitney U-test.

Where [3] appears, read: 8 mg/kg i.p., Test series 1 (n = 10).
Where [4] appears, read: 8 mg/kg i.p., Test series 2 (n = 10).
[5] abbreviates: 16 mg/kg i.p., Test series 1 (n = 10).
The mark [6] stands for this setting: 16 mg/kg i.p., Test series 2 (n = 10).
[7] abbreviates: 32 mg/kg i.p., Test series 1 (n = 10).
[8] abbreviates: 32 mg/kg i.p., Test series 2 (n = 10).
Setting [9] is: 4 mg/kg i.p., Test series 2 (n = 10).
The mark [10] stands for this setting: 64 mg/kg i.p., Test series 1 (n = 10).
Where [11] appears, read: 64 mg/kg i.p., Test series 2 (n = 10).
Setting [12] is: 32 mg/kg i.p., (n = 10), no test series named.

For the compound `O=C1CC2(CCCCC2)CN1` [GPL, 2-azaspiro[4.5]decan-3-on, reference compound], the “side effects above the maximally tolerable dosages (sedation, tremor, hypothermia)” value in data set [1] is recorded as “significant lethality rate”. Besides, the “Mean deviation of the pain reaction compared to control (%) 20–25′ after administration of formalin” value was “(+)” in data set [2] (setting [3]); −58% in data set [2] (setting [4]); “(+)” in data set [2] (setting [5]); −74% in data set [2] (setting [6]); “(+)” in data set [2] (setting [7]); −64% in data set [2] (setting [8]). Also, the “Mean deviation of the pain reaction compared to control (%) 30–35′ after administration of formalin” value in data set [2] (setting [3]) is on record as “(+)”; in data set [2] (setting [4]) it was −18%; in data set [2] (setting [5]) it was “(+)”; in data set [2] (setting [6]), −40%; in data set [2] (setting [7]), −10%; in data set [2] (setting [8]), −15%. Further, the “Mean deviation of the pain reaction compared to control (%) 40–45′ after administration of formalin” value in data set [2] (setting [4]) is reported as −15%; in data set [2] (setting [6]), −41%; in data set [2] (setting [8]) it was −46%.
For the compound `O=C1NC(=O)C2(CCCCC2)N1` [SPM 10011, 1,3-diazaspiro[4.5]decane-2,4-dion], the “Mean deviation of the pain reaction compared to control (%) 20–25′ after administration of formalin” value is −62% in data set [2] (setting [9]); −75% in data set [2] (setting [5]); −84% in data set [2] (setting [6]); −82% in data set [2] (setting [7]); −100% in data set [2] (setting [10]); −100% in data set [2] (setting [11]). For the same compound, the “Mean deviation of the pain reaction compared to control (%) 30–35′ after administration of formalin” value in data set [2] (setting [9]) is reported as “(+)”; in data set [2] (setting [5]), −11%; in data set [2] (setting [6]), −21%; in data set [2] (setting [7]), −64%; in data set [2] (setting [10]), −100%; in data set [2] (setting [11]), −100%. Besides, the “Mean deviation of the pain reaction compared to control (%) 40–45′ after administration of formalin” value in data set [2] (setting [5]) is −55%; in data set [2] (setting [6]), −34%; in data set [2] (setting [7]) it was −64%; in data set [2] (setting [10]), −80%; in data set [2] (setting [11]), −97%.
Turning to `S=C1NC(=S)C2(CCCCC2)N1` [SPM 10013, 1,3-diazaspiro[4.5]decane-2,4-dithion], in data set [2] (setting [5]), the “Mean deviation of the pain reaction compared to control (%) 20–25′ after administration of formalin” value is on record as −60%, the “Mean deviation of the pain reaction compared to control (%) 30–35′ after administration of formalin” value is listed as −14% and the “Mean deviation of the pain reaction compared to control (%) 40–45′ after administration of formalin” value is −49%. In data set [2] (setting [7]), the “Mean deviation of the pain reaction compared to control (%) 20–25′ after administration of formalin” value was −82%, the “Mean deviation of the pain reaction compared to control (%) 30–35′ after administration of formalin” value is −60% and the “Mean deviation of the pain reaction compared to control (%) 40–45′ after administration of formalin” value is recorded as −30%. Further, in data set [2] (setting [10]), the “Mean deviation of the pain reaction compared to control (%) 20–25′ after administration of formalin” value is −98%, the “Mean deviation of the pain reaction compared to control (%) 30–35′ after administration of formalin” value is recorded as −95% and the “Mean deviation of the pain reaction compared to control (%) 40–45′ after administration of formalin” value is listed as −78%.
For `O=C1NCC2(CCCCC2)N1` [SPM 10019, 1,3-diazaspiro[4.5]decane-2-on], in data set [2] (setting [12]), the “Mean deviation of the pain reaction compared to control (%) 20–25′ after administration of formalin” value was −52% and the “Mean deviation of the pain reaction compared to control (%) 40–45′ after administration of formalin” value is −40%.
